These results are taken from patent US9345793B2, “Compounds for binding to the platelet specific glycoprotein IIB/IIIA and their use for imaging of thrombi” (PIRAMAL IMAGING SA, priority 2011, dated 2016).

Like-named read-outs stand apart in the source and are kept apart here.

Data set [1] deals with rat microsomes. Put plainly: In vitro metabolic stability in liver microsomes, rat. The following applies: Wistar, male, calculated. It counts as in vitro ADME. The method, then:
(§1) The incubation concentration was 0.3 μM. […] The samples were frozen over night at −20° C.

Data set [2] addresses human GPIIb/IIIa receptor (Homo sapiens (Human), UniProt P05106+P08514). Put plainly: Affinity assay: displacement of tritiated reference compound from immobilized purified GPIIb/IIIa. It counts as binding. The method, then:
Affinity assay: In the first step human GPIIb/IIIa purified from human platelets was immobilized on a 96-well solid plate. After 48 hours the plates were washed and the unspecific binding sites were blocked with Roti®-Block. 2. In the next step, the plates were simultaneously incubated with a tritium labeled known GPIIb/IIIa binder (^3H) mixed with increasing concentrations of the novel small molecule compounds (inhibitor, ^19F). The higher the affinity of the inhibitor, the lower the bound fraction of the tritiated known GPIIb/IIIa binder (^3H) was. The fraction of tritiated compound (^3H), which is not displaced by inhibitor, was measured in a microplate scintillation counter.
Purified human glycoprotein IIb/IIIa (20 mM Tris-HCl, 0.1 M NaCl, 0.1% Triton X-100, 1 mM CaCl2, 0.05% NaN3, 50% Glycerol, pH 7.4) was purchased from Enzyme Research Laboratories Inc. (South Bend, Ind.). The GPIIb/IIIa receptor was diluted in phosphate-buffered saline (Dulbecco's Phosphate Buffered Saline (D-PBS(+)) with calcium and magnesium, GIBCO®, Invitrogen) with 0.01% bovine serum albumin (albumin from bovine serum—lyophilized powder, ≧96%, Sigma).
The GPIIb/IIIa receptor was immobilized 48 hours at least (100 μL per well, 48 to maximum 96 hours) on a 96-well solid plate (Immuno Plate MaxiSorp™, Nunc, Roskilde, Denmark) at 277 K to 280 K and at a concentration of 0.1 μg per well to 1 μg per well. As negative control one row of the plate (n=8) was incubated just with 2% bovine serum albumin (200 μper well, albumin from bovine serum—lyophilized powder, […], Sigma, diluted in D-PBS(+)). After washing three times with the wash buffer (230 μL per well, Dulbecco's Phosphate Buffered Saline (D-PBS (−)) contains no calcium or magnesium, GIBCO®, Invitrogen) residual exposed plastic and unspecific binding sites were blocked by incubating the plate with a special blocking solution (200 μL per well, Roti®-Block, Carl Roth GmbH Co KG, Karlsruhe) containing 2% bovine serum albumin (Albumin from bovine serum—lyophilized powder, ≧96%, Sigma) 1 hour at room temperature.
After washing three times with the wash buffer 50 μL of tritiated reference compound (60 nM, ^3H-labeled compound) and 50 μL of novel compound (inhibitor, ^19F) were simultaneously added to each well and incubated for 1 hour at room temperature. Several concentrations of each novel inhibitor (0.1, 1, 2, 5, 10, 20 50, 100, 200, 500, 1000, 2000, 5000, 10000 and 20000 nM) were investigated. At each concentration of inhibitor a fourfold determination was performed.
The maximum value of tritiated reference compound was determined without addition of inhibitor (n=8). To exclude unspecific binding of ^3H-reference compound wells without glycoprotein receptors were used as negative controls (n=12, identically treated just without GP IIb/IIIa receptors).
After one hour the plate was washed three times with phosphate-buffered saline (200 μL per well, Dulbecco's Phosphate Buffered Saline (D-PBS(+)), GIBCO®, Invitrogen). Following 140 μL of liquid scintillation cocktail (MicroScint™ 40 aqueous, Perkin Elmer) was added to each well. After 15 min at room temperature the plates were measured at the microplate scintillation counter (TopCount NXT v2.13, Perkin Elmer, Packard Instrument Company).
In the first step human glycoprotein IIb/IIIa, which is purified from human platelets, was immobilized on a 96-well solid plate. After 48 hours at least the plates were washed and the unspecific binding sites were blocked with Roti®-Block. In the next step, the plates were simultaneously incubated with a tritium labeled reference compound and the novel small molecule compound (inhibitor). The higher the affinity of the inhibitor, the smaller is the bound fraction of reference compound. The fraction of tritiated reference compound, which is not displaced by inhibitor, was measured at a microplate scintillation counter.

Data set [3] can be described thus: Plasma protein binding by equilibrium dialysis, monkey plasma. It counts as in vitro ADME. The following applies: plasma (10% in buffer), Cynomolgus, read-out: Fu (Mari). The method, then: (§2) The determination of the plasma protein binding of compounds was performed by means of an equilibrium dialysis in a 96-well HT plate. Solutions of test compound (0.3 μM and 3 μM) were prepared in buffer (50 mM phosphate buffer) and 10% plasma. A 96 well HT dialysis plate (Teflon) was assembled so that each well was divided in two compartments by a semi-permeable cellulose membrane (regenerated Cellulose, MWCO 12-14K). The phosphate buffer solution (150 μL) was added to one side of the membrane and the plasma solution to the other side (150 μL). The compounds were added to the plasma solution side and were incubated at 37 degree. The unbound fraction of the compound could pass through the membrane and equilibrium between the two sides could be reached (6-8 h, 37° C.). Both solutions were analyzed for each compound (plasma-free and plasma-containing) by LC-MS. Both solutions for each compound were diluted with buffer or plasma to reach the same matrix (10% plasma) for analysis and were precipitated by the addition of methanol. The fraction unbound (Fu) was calculated as the quotient of the equilibrium concentrations of the compound in plasma-free and plasma-containing solution.
On the technique in general: In equilibrium dialysis only unbound substance equilibrates across the membrane.

Data set [4] is described as follows: Plasma protein binding by equilibrium dialysis, human plasma. It counts as in vitro ADME. The following applies: plasma (10% in buffer), Caucasian, read-out: Fu (Mari). The method, then: as §2
For data set [5], the system named is monkey microsomes. As to the kind of experiment: In vitro metabolic stability in liver microsomes, monkey. It counts as in vitro ADME. The following applies: Cynomolgus, female, calculated. The method, then: as §1
Data set [6] deals with Human liver microsomes. Put plainly: In vitro metabolic stability in liver microsomes, human. The following applies: both, 0.3 μM, pH 7.4. It counts as in vitro ADME. The method, then:
as §1
A general note: Liver microsomes are vesicles of endoplasmic reticulum, rich in cytochrome P450 enzymes.

The subject of data set [7] is mouse microsomes. As to the kind of experiment: In vitro metabolic stability in liver microsomes, mouse. It counts as in vitro ADME. The conditions noted are these: NMRI, female, calculated. On the procedure:
as §1

Data set [8] in a line: In vitro metabolic stability in liver microsomes, human. The conditions noted are these: pH 7.4. It counts as in vitro ADME. On the procedure: as §1
Where [9] appears, read: 19F compounds vs 60 nM 3H-labeled reference compound, 1 hour at room temperature, read-out: IC50 human.
The mark [10] stands for this setting: values repeated beside the 18F-compound, read-out: IC50 human (corresponding 19F-compound, Table 2).

human GPIIb/IIIa receptor, sequence (P08514 32-887): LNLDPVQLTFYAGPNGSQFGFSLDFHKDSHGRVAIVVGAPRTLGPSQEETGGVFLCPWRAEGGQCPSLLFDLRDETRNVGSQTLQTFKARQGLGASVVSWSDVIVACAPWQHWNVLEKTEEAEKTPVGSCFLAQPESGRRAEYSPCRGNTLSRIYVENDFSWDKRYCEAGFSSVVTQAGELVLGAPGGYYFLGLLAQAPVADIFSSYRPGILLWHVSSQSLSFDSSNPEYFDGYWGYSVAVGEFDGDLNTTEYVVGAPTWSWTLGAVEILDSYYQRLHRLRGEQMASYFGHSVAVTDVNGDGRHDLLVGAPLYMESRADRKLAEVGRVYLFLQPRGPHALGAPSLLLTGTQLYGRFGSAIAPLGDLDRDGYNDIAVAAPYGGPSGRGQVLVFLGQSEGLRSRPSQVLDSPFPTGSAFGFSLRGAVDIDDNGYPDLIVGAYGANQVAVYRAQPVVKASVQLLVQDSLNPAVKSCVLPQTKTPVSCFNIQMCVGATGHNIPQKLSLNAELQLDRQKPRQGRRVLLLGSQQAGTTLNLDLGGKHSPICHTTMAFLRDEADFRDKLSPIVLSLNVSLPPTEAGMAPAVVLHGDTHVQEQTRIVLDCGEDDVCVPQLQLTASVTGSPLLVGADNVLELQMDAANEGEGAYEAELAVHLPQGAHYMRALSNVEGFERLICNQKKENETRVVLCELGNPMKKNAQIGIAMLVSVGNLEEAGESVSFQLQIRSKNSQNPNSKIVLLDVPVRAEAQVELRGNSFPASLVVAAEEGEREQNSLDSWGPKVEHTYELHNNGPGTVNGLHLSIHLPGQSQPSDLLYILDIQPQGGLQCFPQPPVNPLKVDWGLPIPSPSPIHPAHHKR
human GPIIb/IIIa receptor, sequence (P08514 891-1039 partner): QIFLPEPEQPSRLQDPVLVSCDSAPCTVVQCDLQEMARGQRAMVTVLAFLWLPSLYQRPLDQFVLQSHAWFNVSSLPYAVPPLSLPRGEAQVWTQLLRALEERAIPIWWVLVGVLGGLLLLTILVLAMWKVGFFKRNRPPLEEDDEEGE
human GPIIb/IIIa receptor, sequence (P05106 27-788): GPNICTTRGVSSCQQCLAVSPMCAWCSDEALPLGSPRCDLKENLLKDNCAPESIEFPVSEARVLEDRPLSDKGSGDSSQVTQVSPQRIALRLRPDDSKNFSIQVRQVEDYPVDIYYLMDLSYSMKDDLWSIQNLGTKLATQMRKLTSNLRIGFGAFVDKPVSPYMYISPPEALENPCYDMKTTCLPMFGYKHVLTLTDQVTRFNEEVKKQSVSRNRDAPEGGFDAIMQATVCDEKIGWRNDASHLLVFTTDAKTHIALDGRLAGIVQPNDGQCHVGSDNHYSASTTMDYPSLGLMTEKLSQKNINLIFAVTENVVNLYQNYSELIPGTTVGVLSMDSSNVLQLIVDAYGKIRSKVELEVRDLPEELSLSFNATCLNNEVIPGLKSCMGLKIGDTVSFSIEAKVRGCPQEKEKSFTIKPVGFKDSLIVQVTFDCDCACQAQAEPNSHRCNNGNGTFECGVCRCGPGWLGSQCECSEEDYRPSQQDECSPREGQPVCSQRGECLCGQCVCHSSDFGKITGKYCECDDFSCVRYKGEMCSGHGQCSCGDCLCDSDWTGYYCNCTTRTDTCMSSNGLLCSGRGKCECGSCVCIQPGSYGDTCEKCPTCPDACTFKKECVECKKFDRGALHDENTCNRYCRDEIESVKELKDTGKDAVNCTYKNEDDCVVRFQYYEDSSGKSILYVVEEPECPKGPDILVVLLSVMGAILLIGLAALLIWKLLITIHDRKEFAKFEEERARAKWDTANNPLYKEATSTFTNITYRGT

One may read the IC50 as the concentration that inhibits the measured activity by half. Consider `O=C(O)C[C@H](NC(=O)[C@@H]1CCCN(C(=O)CCC2CCNCC2)C1)c1cccc(OCCF)c1` [Example 1, (3S)-3-[3-(2-Fluoroethoxy)phenyl]-3-[({(3R)-1-[3-(piperidin-4-yl)propanoyl]piperidin-3-yl}carbonyl)amino]propanoic acid], for which the CLblood in data set [1], in data set [5] and in data set [6] was 2.4 mL/day/kg throughout. Further, the IC50 in data set [2] (setting [9]) and in data set [2] (setting [10]) was 101 nM in each case. Also, the fraction unbound at 0.3 μM in data set [3] was 0.99; in data set [4], 0.91. The fraction unbound at 3 μM in data set [3] was 0.93; in data set [4] it was 0.9.
As to `O=C(O)C[C@H](NC(=O)[C@@H]1CCCN(C(=O)CCC2CCNCC2)C1)c1cncc(OCCF)c1` [Example 3, (3S)-3-[5-(2-Fluoroethoxy)pyridin-3-yl]-3-[({(3R)-1-[3-(piperidin-4-yl)propanoyl]-piperidin-3-yl}carbonyl)amino]propanoic acid], the CLblood in data set [7], in data set [1], in data set [5] and in data set [6] was 2.4 mL/day/kg throughout. The IC50 in data set [2] (setting [9]) and in data set [2] (setting [10]) was 20 nM throughout. Moreover, the fraction unbound at 0.3 μM in data set [3] came out at 1; in data set [4], 0.96. Further, the fraction unbound at 3 μM in data set [3] and in data set [4] was 1 throughout. Also, the recovery at 60 min, 0.3 μM in data set [8] is ~100%.
